From patent publication US11447495B2, “Substituted benzo[f]imidazo[1,5-a][1,4]diazepines as GABA(a) receptor modulators” (priority 2016, dated 2022)
Read-outs that look alike come from different tables or passages of the source.

Tests used:
[1] = Airway hyperresponsiveness (sRaw) to methacholine in ovalbumin asthma model; assay type: in vivo, ova s/c BALB/c mice; details: oral gavage, 100 mg/kg twice daily for 5 days, methacholine challenge
Protocol: Compounds described herein may reduce airway hyperresponsiveness in animal models of asthma. Therefore, mice may be sensitized three times with intra-peritoneal (i.p.) injections of 2 mg/kg/d of ovalbumin (Ova) emulsified in […] on days 0, 7 and 14 in a total volume of 100 μL. In addition, mice may be challenged intra-nasally (i.n.) with 1 mg/kg/d Ova for 5 days from days 23-27. Control mice may be sensitized with Ova and challenged with saline. The airway hyperresponsiveness measurements may be carried out with DSI's Buxco® FinePointe Non-Invasive Airway Mechanics (NAM) instrument consisting of a nasal chamber in combination with the thoracic chamber that allows the computation of specific airway resistance (sRaw). Treated conscious, spontaneously breathing Ova S/C mice may be exposed to aerosolized phosphate buffered saline (PBS) (for the baseline measurement) or methacholine (1.5625-12.5 mg/mL) for 1 minute and readings (sRaw) may be taken and averaged for 3 minutes after each nebulization.
Drug treatment protocol: Sterile solutions of compounds were prepared in 2% hydroxypropyl methylcellulose solution (Sigma-Aldrich, St. Louis, Mo.) and 2.5% polyethylene glycol (Sigma Aldrich, St. Louis, Mo.) for oral administration in a biological safety cabinet. A fine suspension was obtained by grinding the mixture with a mortar and pestle. Drugs were administered individually at 100 mg/kg by oral gavage (200 ul) with 20G gavage needles (Kent Scientific Corporation, Torrington Conn.) to groups of ova s/c BALB/c twice daily for 5 days during the ova challenge period. Mice received a single p.o. dose of the compounds just before airway parameter measurements. Compounds for i.p. injection were prepared in 10% DMSO, 40% propylene glycol, and 50% PBS and given as 100 ul injection. Mice were monitored daily after drug administration. Assessment of Airway hyper-responsiveness: Airway hyper-responsiveness to methacholine in conscious, spontaneously breathing animals was measured by DSI's Buxco® FinePointe Non-Invasive Airway Mechanics (NAM) instrument. Before measurements were taken, mice were acclimated to the chambers 15 minutes daily for 5 days. In addition, an ovalbumin sensitization and challenge protocol consists of randomized male BALB/c mice that were sensitized three times with intra-peritoneal (i.p.) injections of 2 mg/kg/d of ovalbumin (Ova) (Sigma-Aldrich, St. Louis, Mo.) emulsified in 2 mg of Alum (Imject Alum; Thermo Scientific, Pierce, Rockford, Ill.) on days 0, 7 and 14 in a total volume of 100 μL. The mice were then challenged intra-nasally (i.n.) with 1 mg/kg/d Ova for 5 days from days 23-27. Control mice were sensitized with Ova and challenged with saline. The chambers were also calibrated each time before data collection. Briefly, the nasal chamber in combination with the thoracic chamber allows the computation of specific airway resistance (sRaw). The FinePointe software computes specific airway resistance (sRaw) with all other ventilatory parameters derived by the NAM analyzer. Mice were exposed to aerosolized PBS (for the baseline measurement) or methacholine (1.5625-12.5 mg/mL) for 1 minute and readings were taken and averaged for 3 minutes after each nebulization. Data obtained were presented as sRaw versus the methacholine concentration (mg/mL) used to generate the aerosol. FIG. 5A-5F show compound effects on airway hyperresponsiveness. Specific airway resistance (sRaw) was measured at increasing dosages of methacholine by a DSI's Buxco FinePointe non-invasive airway mechanics instrument. Ova s/c BALB/c mice were administered all compounds via oral gavage, 100 mg/kg twice daily for 5 days. Data represent mean±SEM from 10 mice in each group. *, **, and *** indicate p<0.05, p<0.01, p<0.001 significance, respectively, compared to vehicle treated ova s/c BALB/c mice.

[2] = tested on: inflammatory cells, eosinophils, CD4+ T cells in BALF; experiment: Inflammatory cell numbers in BALF by flow cytometry; assay type: in vivo, ova s/c BALB/c mice; details: 100 mg/kg twice daily for 5 days
Protocol: The change of the number of specific immune cells caused by compounds may be investigated in the bronchoalveolar lavage fluid (BALF) of Ova S/C mice. Therefore, a bronchoalveolar lavage may be carried out followed by the lysis of red blood cells. Incubation of cell-type specific antibodies with BALF may allow the quantification of leukocytes such as eosinophils and CD4^+ T-lymphocytes using flow cytometry.
Determination of anti-inflammatory properties of compounds were investigated in an allergen induced mouse model of asthma. At the day of analysis, bronchoalveolar lavage (BAL) was performed with 1 mL of Ca2+ and Mg2+ free PBS. Red blood cells (RBCs) were lysed using BD red blood cell lysis buffer (BD Pharmingen, San Jose, Calif.). BALF was split into four different tubes and non-specific binding to Fc receptors was blocked for 5 minutes using 6 μg/mL of 2.4G2 mouse BD Fc Block™ (BD Pharmingen, San Jose, Calif.). BALF cells were stained for 30 minutes at 4° C. in the dark with 100 μL BSA stain buffer (BD Pharmingen, San Jose, Calif.) containing the final concentrations of the following antibodies: anti-mouse CD45 APC (1:1000, 30-F11, Affymetrix eBiosciences, San Diego, Calif.), FITC rat anti-mouse CD4 (1:500, RM4-5, BD Pharmingen, San Jose, Calif.), PE Rat Anti-Mouse Siglec F (1:500, E50-2440, BD Pharmingen, San Jose, Calif.) and mouse CCR3 PE-conjugated antibody (1:40, 83101, R&D systems Inc, Minneapolis, Minn.). Flow cytometric studies were done using the BD FACS Calibur (BD Pharmingen, San Jose, Calif.) and data analyzed subsequently using Cell Quest pro software (BD Pharmingen, San Jose, Calif.). General gating for immune cells were followed. Total inflammatory cell count was obtained by running all samples on high (60 μL/min) for 180 seconds. The gated anti-mouse CD45 positive events in the fourth channel (FL4) were used to calculate the total inflammatory cell count as cells/mL. The frequencies of CCR3+/Siglec F were used for quantification of eosinophils and CD4+ for CD4+ T cell populations in their respective gates were multiplied by the total inflammatory cell count (cells/mL) to obtain the differential cell population. Statistical analysis: Data were analyzed using GraphPad Prism 4 (GraphPad Software, San Diego, Calif.) and expressed as mean±SEM. One-way analysis of variance (ANOVA) with Dunnet post hoc test or two-way ANOVA with Bonferroni post hoc test were performed for statistical difference for multiple groups. FIGS. 7A-7C show effects of compounds on inflammatory cells. Groups of 10 ova s/c BALB/c mice were administered compounds at 100 mg/kg twice daily for 5 days. BALF was harvested from each animal and used for (A) quantification of total inflammatory cells; (B) eosinophils; (C) CD4^+ T cells. Cells were stained with mouse CD45^+ APC antibody, and samples were analyzed with BD FACS Calibur on high flow rate (60 μl/minute) for 180 seconds. The gated positive events in the fourth channel (FL4) were used to calculate the total inflammatory cell count as cells/ml. Quantification of specific leukocyte population (B) eosinophils (C) CD4^+ T cell populations were stained with specific antibodies and detected by flow cytometry. Data represent mean±SEM from 10 mice in each group. *, **, and *** indicate p<0.05, p<0.01, and p<0.001 significance, respectively, compared to vehicle treated ova s/c BALB/c mice.

HEK293 = experiment: Cytotoxicity, CellTiter-Glo cell viability assay, kidney cells; assay type: cell-based, human
Protocol: The cytotoxicity of compounds may be evaluated by treating HEK293 human embryonic kidney cells with increasing concentrations of compounds for 24-48 hours followed by the quantification of living cells using Cell-Titer Glo (Promega).
Compounds with increased cytotoxicity can be identified using an in vitro cytotoxicity assay. Therefore, human embryonic kidney 293T (HEK293T) cell lines were purchased (ATCC) and cultured in 75 cm2 flasks (CellStar). Cells were grown in DMEM/High Glucose (Hyclone, #SH3024301) media to which non-essential amino acids (Hyclone, #SH30238.01), 10 mM HEPES (Hyclone, #SH302237.01), 5×106 units of penicillin and streptomycin (Hyclone, #SV30010), and 10% of heat inactivated fetal bovine serum (Gibco, #10082147) were added. Cells were harvested using 0.05% Trypsin (Hyclone, #SH3023601). The cell viability assay was evaluated using CellTiter-Glo™ Luminescent Cell Viability Assay Kit (Promega, Madison, Wis.), which contains luciferase and all its substrate except ATP. The controls for the cytotoxicity assay used were (E)-10-(bromotriphenylphosphoranyl)decyl 4-(4-(tert-butyl)phenyl)-4-oxobut-2-enoate (400 μM in DMSO, positive control) and DMSO (negative control). All luminescence readings were performed on a Tecan Infinite M1000 plate reader. Small volume transfers were performed on the Tecan Freedom EVO liquid handling system with a 100 nL pin tool transfer (V&P Scientific). Serial dilutions were done in 96-well polypropylene plates (Corning, #3365) and assays were conducted in 384-well white optical bottom plates. The assays were carried out in quadruplet in three independent runs. The data were normalized to the controls and if possible analyzed by nonlinear regression (GraphPad Prism).

HEPG2 = experiment: Cytotoxicity, liver cells; assay type: cell-based, human
[3] = Microsomal stability, human liver microsomes; assay type: in vitro ADME; details: 10 μM compound
Protocol: (§1) The metabolic stability of compounds in vivo can be estimated with the stability of compounds in the presence of liver microsomes. Therefore, 4 μL of 1 mM DMSO solution of test compound at a final concentration of 10 μM were preincubated at 37° C. for 5 minutes on a digital heating shaking dry bath (Fischer scientific, Pittsburgh, Pa.) in a mixture containing 282 μL of water, 80 μL of phosphate buffer (0.5 M, pH 7.4) 20 μL of NADPH Regenerating System Solution A (BD Bioscience, San Jose, Calif.) and 4 μL of NADPH Regenerating System Solution B (BD Bioscience, San Jose, Calif.) in a total volume of 391.2 μL. Following preincubation, the reaction was initiated by addition of 8.8 μL of either human liver microsomes (BD Gentest, San Jose, Calif.) or mouse liver microsomes (Life technologies, Rockford, Ill.) at a protein concentration of 0.5 mg/mL. Aliquots of 50 μL were taken at time intervals of 0 (without microsomes), 10, 20, 30, 40, 50 and 60 minutes. Each aliquot was added to 100 μL of cold acetonitrile solution containing 1 μM of verapamil HCL as internal standard. This was followed by sonication for 10 seconds and centrifugation at 10,000 rpm for 5 minutes. 100 μL of the supernatant was transferred into Spin-X HPLC filter tubes (Corning Incorporated, NY) and centrifuged at 13,000 rpm for 5 minutes. The filtrate was diluted 100-fold and subsequently analyzed by LC-MS/MS with Shimadzu LCMS 8040, (Shimadzu Scientific Instruments, Columbia, Md.). The ratio of the peak areas of the internal standard and test compound was calculated for every time point and the natural log of the ratio were plotted against time to determine the linear slope (k). The metabolic rate (k*C0/C), half-life (0.693/k), and […] (V*k) were calculated, where k is the slope, C0 is the initial concentration of test compound, C is the concentration of microsomes, and V is the volume of incubation in μL per microsomal protein in mg. All experiments were repeated two time in triplicates.

[4] = Microsomal stability, mouse liver microsomes; assay type: in vitro ADME; details: 10 μM compound
Protocol: as §1

[5] = tested on: guinea pig airway smooth muscle; experiment: Relaxation of substance P contracted guinea pig tracheal rings; design: dose or concentration left out as unconfirmed
[6] = Pharmacokinetic analysis in blood, lungs and brain; details: mouse, 25 mg/kg oral gavage

In the case of C[C@H]1N=C(c2ccccc2F)c2cc(C3CC3)ccc2-n2cnc(C(=O)O)c21 [GL-III-43, (R)-8-cyclopropyl-6-(2-fluorophenyl)-4-methyl-4H-benzo[f]imidazo[1,5-a][1,4]diazepine-3-carboxylic acid], the “airway hyperresponsiveness (sRaw)” value [1] is reported as “not able to alleviate airway hyperresponsiveness” and the “numbers of inflammatory cells in BALF” value [2] is reported as “did not modulate the numbers of inflammatory cells”.
For CC(C)(C)OC(=O)c1ncn2c1[C@@H]1CCCN1C(=O)c1cc(O)ccc1-2 [RJ-02-67, tert-butyl (S)-7-hydroxy-9-oxo-11,12,13,13a-tetrahydro-9H-benzo[e]imidazo[5,1-c]pyrrolo[1,2-a][1,4]diazepine-1-carboxylate], the “LD50 HEK293 (Kidney)” value (HEK293; human, HEK293 (HEK293T) human embryonic kidney cells) was >400 µM, the “LD50 HEPG2 (Liver)” value (HEPG2; human, HepG2 liver cells) was >400 µM and the “HLM % remaining after 60 min” value [3] was 90.6 ± 0.2%. The “MLM % remaining after 60 min” value [4] was 46.6 ± 0.3%.
With COc1ccc2c(c1)C(=O)N1CCC[C@H]1c1c(-c3nnn[nH]3)ncn1-2 [RJ-03-57, (S)-7-methoxy-1-(1H-tetrazol-5-yl)-11,12,13,13a-tetrahydro-9H-benzo[e]imidazo[5,1-c]pyrrolo[1,2-a][1,4]diazepin-9-one] the “LD50 HEK293 (Kidney)” value (HEK293) was >200 µM, the “LD50 HEPG2 (Liver)” value (HEPG2) was >200 µM and the “HLM % remaining after 60 min” value [3] was 94.3 ± 0.1%. For the same compound, the “MLM % remaining after 60 min” value [4] was 98.3 ± 0.2%, the “airway smooth muscle contractile force, guinea pig tracheal rings” value [5] was “All investigated compounds except RJ-03-57 reduced the constriction of airway smooth muscle” and the “airway hyperresponsiveness (sRaw)” value [1] was “not able to alleviate airway hyperresponsiveness”. For the same compound, the absorption [6] was “moderate absorption” and the clearance [6] was “fast clearance”.
For O=C(O)c1ncn2c1[C@@H]1CCCN1C(=O)c1cc(O)ccc1-2 [RJ-03-90, (S)-7-hydroxy-9-oxo-11,12,13,13a-tetrahydro-9H-benzo[e]imidazo[5,1-c]pyrrolo[1,2-a][1,4]diazepine-1-carboxylic acid], the “numbers of inflammatory cells in BALF” value [2] was “did not modulate the numbers of inflammatory cells”.
